Experimental data as given in paper PMC8197800, “Structure and Dynamics of Meprin β in Complex with a Hydroxamate-Based Inhibitor” (International Journal of Molecular Sciences, 2021).
Like-named read-outs stand apart in the source and are kept apart here.

What was measured:
[1] = target: T1, Meprin β (Homo sapiens, UniProt Q16820); experiment: Meprin β enzyme inhibition (cleavage of quenched fluorogenic peptide Abz-YVAEAPK(Dnp)G-OH); type: biochemical
T1 construct: For the purified, truncated variant Meprin β^62–595 (MβΔC), despite reduced protein yield, identical specific activity was detected; His-tag (N, cleaved yes); made in house; host or cells: Pichia pastoris
T1 sequence (Q16820 62-595): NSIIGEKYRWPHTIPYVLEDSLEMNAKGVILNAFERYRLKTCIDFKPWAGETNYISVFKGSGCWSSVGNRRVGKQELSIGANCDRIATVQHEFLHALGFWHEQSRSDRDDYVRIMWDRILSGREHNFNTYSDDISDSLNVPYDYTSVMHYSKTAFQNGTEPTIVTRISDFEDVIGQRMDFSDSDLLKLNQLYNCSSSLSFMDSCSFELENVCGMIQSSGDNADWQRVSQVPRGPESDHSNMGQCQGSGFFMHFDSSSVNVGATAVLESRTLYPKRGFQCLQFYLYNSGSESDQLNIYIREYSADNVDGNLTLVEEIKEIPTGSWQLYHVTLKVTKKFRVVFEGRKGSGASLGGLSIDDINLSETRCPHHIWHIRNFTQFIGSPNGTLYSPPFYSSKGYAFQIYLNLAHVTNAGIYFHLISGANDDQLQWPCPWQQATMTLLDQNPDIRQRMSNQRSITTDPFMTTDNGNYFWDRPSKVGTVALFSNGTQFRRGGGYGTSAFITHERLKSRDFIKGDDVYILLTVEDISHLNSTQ
Protocol: The enzymatic activity of Meprin β was determined, essentially as described previously. The assay is based on the change of fluorescence intensity due to cleavage of the internally quenched peptide substrate Abz-YVAEAPK(Dnp)G-OH (λex 340 nm/λem 420 nm). For activity determination during expression and purification, the proenzyme was activated by trypsin. For activation, 100 µL of cleavage buffer (50 mM Tris/HCl, 10 mM CaCl2, pH 7.5), 50 µL Meprin β solution and 50 µL bovine trypsin 500 µg/mL (Sigma Aldrich) were mixed and incubated for 15 min at 30 °C. An aliquot of the reaction (50 µL) was mixed again with 150 µL assay buffer consisting of 40 mM Tris/HCl, pH 8.0, 0.05% Brij 30. The reaction was initiated by addition of 50 µL of substrate (final concentration 50 µM), which was dissolved in assay buffer.

[2] = target: T2, Meprin β62–595 (MβΔC) (Homo sapiens, UniProt Q16820); experiment: Isothermal titration calorimetry (ITC) of inhibitors to Meprin β62–595 (MβΔC); type: binding; design: H (one-site fit) / S (one-site fit): unit not given here; conditions: for H (one-site fit) / K (association constant, one-site fit) / N (stoichiometry, one-site fit) / S (one-site fit): ITC fit; for Kd / ΔH (binding enthalpy) / −ΔS * T (binding entropy term): ITC, 30 °C
T2 construct: His-tag (N, cleaved yes); α-mating factor secretion signal (S. cerevisiae) (N, cleaved yes); made in house; host or cells: Pichia pastoris X33
T2 sequence (Q16820 62-595): T1 sequence (Q16820 62-595)
Protocol: The binding affinity (KD), binding enthalpy (ΔH), binding entropy (ΔS) and stoichiometry (N) of different Meprin β inhibitors to Meprin β^62–595 (MβΔC) were determined by isothermal titration of the inhibitors to the enzyme at 30 °C using a VP-ITC microcalorimeter (MicroCal). Prior to the binding analysis, the purified Meprin β^62–595 (MβΔC) was dialyzed extensively against 40 mM Tris pH 8.0 (±150 mM NaCl). The inhibitors were diluted 1:50 from DMSO stock solutions into dialysis buffer and 2% (v/v) DMSO were added to the dialyzed enzyme solution immediately before starting the titration experiment. The instrument was operated according to the manufacturer’s instructions and the data analyzed using MicroCal ORIGIN software. The obtained binding heat was corrected by the dilution heat of the ligand, which was recorded by titration of the inhibitor (1:50 diluted) into the dialysis buffer containing 2% (v/v) DMSO. The corrected data were evaluated by a single-site binding model calculating N, KD, ΔH and ΔS.
1. MWT-S-270 (-NaCl) 2. MWT-S-270 (+ NaCl)
Figure S7: ITC binding curves for the titration of Meprin β62-595 (MβΔC) with different inhibitors. […]

[3] = target: T2, Meprin β62–595 (MβΔC); experiment: Proteolytic stability of concentrated Meprin β62–595 (MβΔC) with inhibitor, SDS-PAGE; conditions: 15 °C; for stability of Meprin β62–595 (MβΔC) with inhibitor added: SDS-PAGE; for degradation of Meprin β62–595 (MβΔC) on addition of inhibitor: up to 15 days, molar ratio 1:1.3 (actinonin), 1:1.2 (MWT-S-270)
Protocol: For reduction of potential heterogeneity, flexible glycosyl chains were removed by deglycosylation. The influence of different detergents and protein concentrations on the deglycosylation and stability of the enzyme has been investigated and analyzed by SDS-PAGE. […] To prevent degradation, the non-specific Meprin β inhibitor actinonin or the specific Meprin β inhibitor MWT-S-270 was added to the protein solution in a molar ratio of 1:1.3 and 1:1.2, respectively.
For the removal of surface-exposed glycosyl chains, a deglycosylation was performed prior to crystallization.
(MβΔC) before and after deglycosylation by EndoH under native conditions.
(1 picture or pasted object on this page, not shown here)

[4] = system: Meprin α; conditions: cited from earlier work
[5] = 40 mM Tris pH 8.0 (no NaCl), read-out: Ki

Row | SMILES | H (one-site fit) ([2]; Figure S7, -NaCl) | K (association constant, one-site fit) ([2]; Figure S7, -NaCl) | N (stoichiometry, one-site fit) ([2]; Figure S7, -NaCl) | S (one-site fit) ([2]; Figure S7, -NaCl) | Kd ([2]; 40 mM Tris pH 8.0 (no NaCl)) [nM] | ΔH (binding enthalpy) ([2]; 40 mM Tris pH 8.0 (no NaCl)) [kcal/mol] | −ΔS * T (binding entropy term) ([2]; 40 mM Tris pH 8.0 (no NaCl)) [kcal/mol] | stability of Meprin β62–595 (MβΔC) with inhibitor added [3] | degradation of Meprin β62–595 (MβΔC) on addition of inhibitor [3] | IC50 ([1]; 40 mM Tris pH 8.0 (no NaCl)) [nM] | Ki [1, 5] [nM] | also measured
1 | O=C(CN(Cc1cccc(C(=O)O)c1)Cc1cccc(C(=O)O)c1)NO [1 (270), 3-[[(3-Carboxyphenyl)methyl-[2-(hydroxyamino)-2-oxoethyl]amino]methyl]benzoic acid] | -3884 ±41.29 | 6.31E7 ±1.05E7 | 0.939 ±0.00648 | 22.9 | 16 | -3.884 | -6.939 | at least 15 days | prevented | – | – | IC50 ([1]; 150 mM NaCl, 40 mM Tris pH 8.0): 176 nM; Ki ([1]; 150 mM NaCl, 40 mM Tris pH 8.0, read-out: Ki): 198 nM; Ki ([1]; Ki, 40 mM Tris pH 8.0 (no NaCl)): 28.6 nM; H (one-site fit) ([2]; Figure S7, + NaCl): -4554 ±133,1; K (association constant, one-site fit) ([2]; Figure S7, + NaCl): 2,50E6 ±5,30E5; N (stoichiometry, one-site fit) ([2]; Figure S7, + NaCl): 1,13 ±0,0246; S (one-site fit) ([2]; Figure S7, + NaCl): 14,2; Kd ([2]; 150 mM NaCl, 40 mM Tris pH 8.0): 400 nM; ΔH (binding enthalpy) ([2]; 150 mM NaCl, 40 mM Tris pH 8.0): -4.554 kcal/mol; −ΔS * T (binding entropy term) ([2]; 150 mM NaCl, 40 mM Tris pH 8.0): -4.303 kcal/mol; IC50 ([4]; read-out: IC50 towards Meprin α): 16000 nM; stronger inhibition of Meprin β in comparison to Meprin α ([4]; selectivity Meprin β over Meprin α): more than 100 fold
2 | O=C(CN(Cc1cccc(C(=O)O)c1)Cc1ccc2c(c1)OCO2)NO [2 (416)] | -3966 ±57,47 | 4,21E6 ±6,18E5 | 1,06 ±0,0110 | 17,2 | 237 | -3.966 | -5.212 | – | – | 285 | 192 | –
3 | O=C(CN(Cc1ccccc1)Cc1cccc(C(=O)O)c1)NO [3 (396)] | -1138 ±32.08 | 1.34E6 ±2.22E5 | 1.09 ±0.0225 | 24.3 | 746 | -1.138 | -7.363 | – | – | 1280 | 1390 | –
4 | CCCCC[C@H](CC(=O)NO)C(=O)N[C@H](C(=O)N1CCC[C@H]1CO)C(C)C [actinonin, reference compound] | – | – | – | – | – | – | – | at least 15 days | prevented | – | – | –
